According to the supplement of paper PMC11616607:

Columns and labels:
Assay in all cases: drug sensitivity score (DSS) from 5-point dose-response viability curve (DSS (area-under-curve based score)); higher = more sensitive (stronger growth inhibition or killing); extreme values may be limits of the assay
Settings in all cases: exposure time: 72 h; concentration range: 5 concentrations over 10,000-fold range
Ovsaho = test system: Ovsaho
Summary of the method: (§1)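 Ovarian cancer and normal ovarian cell lines were tested in 384-well plates, with drugs dispensed acoustically (Echo 550) in DMSO or water at five concentrations covering a 10,000-fold range. After 1,500 cells per well were added, plates were incubated for 3 days at 37°C and 5% CO2, and viability was read by CellTiter-Glo luminescence on a PHERAstar FS. Breeze software gave a drug sensitivity score for each cell line and drug, where a higher score means greater sensitivity. A value of zero means no response.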

OVCAR5 = test system: OVCAR5
Summary of the method: as §1

HOSE1C = test system: HOSE1C
Summary of the method: as §1

OVCAR8 = test system: OVCAR8
Summary of the method: as §1

COV318 = test system: COV318
Summary of the method: as §1

OV90 = test system: OV90
Summary of the method: as §1

HOSE2C = test system: HOSE2C
Summary of the method: as §1

COV362 = test system: COV362
Summary of the method: as §1

Kuramochi = test system: Kuramochi
Summary of the method: as §1

JHOS2 = test system: JHOS2
Summary of the method: as §1

CAOV3 = test system: CAOV3
Summary of the method: as §1

OVCAR4 = test system: OVCAR4
Summary of the method: as §1

Structure (SMILES)	drug sensitivity score (Ovsaho)	drug sensitivity score (OVCAR5)	drug sensitivity score (HOSE1C)	drug sensitivity score (OVCAR8)	drug sensitivity score (COV318)	drug sensitivity score (OV90)	drug sensitivity score (HOSE2C)	drug sensitivity score (COV362)	drug sensitivity score (Kuramochi)	drug sensitivity score (JHOS2)	drug sensitivity score (CAOV3)	drug sensitivity score (OVCAR4)
Cc1ncc(-c2ccnc(Nc3ccc(S(C)(=O)=O)cc3)n2)n1C(C)C [AZD-5438]	8.1	9.2	7	8.4	2.9	4.4	2	2.8	6.8	7.9	4.4	2.9
Cc1cc([C@@H](C)Nc2ccccc2C(=O)O)c2nc(N3CCOCC3)cc(=O)n2c1 [AZD-6482]	7.6	0.1	0.3	0.7	0.1	0	1.2	0	6	0	2.3	1.6
CC#CC(=O)N1CCC[C@H]1c1nc(-c2ccc(C(=O)Nc3ccccn3)cc2)c2c(N)nccn12 [Acalabrutinib]	1	0.2	0	0	3.5	0	0	0.3	6.2	0.8	0	2.1
COc1cc(Nc2ncc3c(n2)-c2ccc(Cl)cc2C(c2c(F)cccc2OC)=NC3)ccc1C(=O)O [Alisertib]	3.1	6.9	8.9	9.4	1.9	5.4	5.4	0	3.7	0.4	22.5	4.9
Cc1c(-c2c(-c3ccc(F)o3)sc3ncnc(O[C@H](Cc4ccccc4OCc4ccnn4CC(F)(F)F)C(=O)O)c23)ccc(OCCN2CCN(C)CC2)c1Cl	0	0.1	0	0	0.2	0.1	0	0.4	0	0	0	0.6
COc1cc2c(Oc3ccc4[nH]c(C)cc4c3F)ncnc2cc1OCCCN1CCCC1 [Cediranib]	0.7	0	0	0	0.2	0	0	0	0	0	0	0.5
CCCCCCCCCCCCCCCCCCOP(=O)([O-])OC1CC[N+](C)(C)CC1 [Perifosine]	0	0	0	0	0	0	0	0	0	0	0	0
CC#CC(=O)N1CC[C@@H](n2c(=O)n(-c3ccc(Oc4ccccc4)cc3)c3c(N)ncnc32)C1 [Tirabrutinib]	0.3	0.8	0	0	0	0	0	0	1.3	0	1.6	0
Nc1nc(N)c2nc(-c3cccc(O)c3)c(-c3cccc(O)c3)nc2n1 [TG100-115]	0	0.4	0	0	0	0	0	0.9	1.2	0	0.3	2.3
COc1ccc(-c2nc(N3CCOCC3)c3sc(CN(C)c4ncc(C(=O)NO)cn4)cc3n2)cn1 [CUDC-907]	29.2	38.3	45.8	41.5	21.3	37	42.7	20.3	29.4	26.4	31.3	26.2
NC(=O)NO [Hydroxyurea]	2.3	2.9	8.2	5.1	1.7	2.8	8	0.1	0	3.3	1.1	0
CCc1nc(C(N)=O)c(Nc2ccc(N3CCC(N4CCN(C)CC4)CC3)c(OC)c2)nc1NC1CCOCC1 [Gilteritinib]	0	4.9	0	0.4	0.6	2.2	0	0.4	0.7	0	3.9	0.1
COc1ncc(-c2ccc3nccc(-c4ccnnc4)c3c2)cc1NS(=O)(=O)c1ccc(F)cc1F [Omipalisib]	10.4	18.9	16.6	13.3	10.7	8.6	18.1	6.7	16.2	10.1	16.9	12.7
O=C(O)c1ccc(O)c2ncccc12 [IOX-1]	1.6	1	4.6	3	0	3.2	3.4	0	1.6	0	1.2	1.5
CC[C@H](Nc1ncnc2[nH]cnc12)c1nc2cccc(F)c2c(=O)n1-c1ccccc1 [Idelalisib]	5.7	2.7	0.1	0.2	0.7	0	1	1.3	5.8	0.9	0.8	2.3
NC(=O)c1cccc2cn(-c3ccc([C@@H]4CCCNC4)cc3)nc12 [Niraparib]	2.1	2.6	3.9	4.1	1.1	1.7	1.9	0	1	1.5	3.4	0
Cc1cc(F)c(C(=O)Nc2cccc(-c3nncn3C(C)C)n2)cc1-n1cnc(C2CC2)c1 [Selonsertib]	0	0	0	0	0	0.1	0	0	0	0	0	0
CC(C)c1c(C(=O)Nc2ccccc2)c(-c2ccccc2)c(-c2ccc(F)cc2)n1CC[C@@H](O)C[C@@H](O)CC(=O)O [Atorvastatin]	5.2	0.4	10.1	3.6	0	2.3	10.8	0	1	0.3	0.8	0
C[C@]12C=CC(=O)C=C1CC[C@@H]1[C@@H]2[C@@H](O)C[C@@]2(C)[C@H]1CC[C@]2(O)C(=O)CO [Prednisolone]	0	0	0	0.1	1.1	0.1	3.3	0	0	0.1	0	0
Cc1nc(=O)c2cc(CN(C)c3ccc(C(=O)N[C@@H](CCC(=O)O)C(=O)O)s3)ccc2[nH]1 [Raltitrexed]	5.7	6.3	21.8	18.4	3	6.1	20.3	6	9.1	4.2	10.7	6.4
O=C(Nc1cc(Oc2cc(F)c(NC(=O)C3(C(=O)Nc4ccc(F)cc4)CC3)cc2F)ccn1)C1CC1 [Altiratinib]	3.6	6.6	4.2	6	1.7	0	3.4	3	4.3	4.3	2.7	3.3
Cc1cc(Nc2cc(CN3CCOCC3)c3nc(C)c(Cc4ccc(Cl)cc4F)n3n2)n[nH]1 [Gandotinib]	6.7	5.8	5.9	7.1	4.9	4.1	8.9	4.6	5.9	3.1	5.9	4
N#Cc1ccnc(N2C(=O)CC[C@H]2C(=O)N(c2cncc(F)c2)[C@H](C(=O)NC2CC(F)(F)C2)c2ccccc2Cl)c1 [Ivosidenib]	0	0.6	0	0	0	0.3	0	0	0	0	0	0.1
O=C1CCC(N2C(=O)c3ccccc3C2=O)C(=O)N1 (configuration not stated) [Thalidomide]	0	0	0	0	0	0	0	0	0	0	0	0
NC1(c2ccc(-c3nc4ccn5c(=O)[nH]nc5c4cc3-c3ccccc3)cc2)CCC1 [MK-2206]	2.6	2	2.1	0	1.2	1.9	2.6	0.4	4.4	0	1.9	0.4
C[C@@H]1CN(C(=O)c2ccc(NC(=O)c3cc(O[C@H](C)c4c(Cl)ccc(F)c4Cl)c(N)nn3)cc2)C[C@H](C)N1 [Ensartinib]	0	1.8	0.5	0	0	0.1	1.9	0	0	0	1.5	0
